Format in all cases: functional
Test [1] concerns Mycobacterium tuberculosis. Description: Antitubercular activity against isoniazid-resistant Mycobacterium tuberculosis assessed as inhibition of bacterial growth after 4 weeks by two-fold dilution technique. The settings on record: 672 h.
Test [2] concerns Mycobacterium tuberculosis. Description: Antitubercular activity against rifampin and isoniazid-resistant Mycobacterium tuberculosis infected in human THP-1 cells assessed as inhibition of intracellular activity at 10 mg/L after 4 days. The following applies: THP-1, 96 h.
The subject of test [3] is Mycobacterium tuberculosis. Description: Antitubercular activity against rifampin, isoniazid and streptomycin-resistant Mycobacterium tuberculosis infected in human THP-1 cells assessed as inhibition of intracellular activity at 10 mg/L after 4 days. The settings on record: THP-1, 96 h.
Test [4] relates to Mycobacterium tuberculosis. Description: Antitubercular activity against rifampin, isoniazid and ethambutol-resistant Mycobacterium tuberculosis infected in human THP-1 cells assessed as inhibition of intracellular activity at 10 mg/L after 4 days. The following applies: THP-1, 96 h.
The test system of test [5] is Mycobacterium tuberculosis. Description: Antitubercular activity against rifampin, isoniazid, kanamycin and ofloxacin-resistant Mycobacterium tuberculosis infected in human THP-1 cells assessed as inhibition of intracellular activity at 20 mg/L after 4 days. The settings on record: THP-1, 96 h.
The subject of test [6] is Mycobacterium tuberculosis. Description: Antitubercular activity against rifampin, isoniazid, amikacin and ofloxacin-resistant Mycobacterium tuberculosis infected in human THP-1 cells assessed as inhibition of intracellular activity at 10 mg/L after 4 days. The settings on record: THP-1, 96 h.
Test [7] deals with Mycobacterium tuberculosis. Description: Antitubercular activity against isoniazid-resistant Mycobacterium tuberculosis infected in human THP-1 cells assessed as inhibition of intracellular activity at 20 mg/L after 4 days. The settings on record: THP-1, 96 h.
In test [8] the test system is Mycobacterium tuberculosis. Description: Antitubercular activity against rifampin, isoniazid, kanamycin and ofloxacin-resistant Mycobacterium tuberculosis infected in human THP-1 cells assessed as inhibition of intracellular activity at 10 mg/L after 4 days. The following applies: THP-1, 96 h.
Test [9] has as its system Mycobacterium tuberculosis. Description: Antitubercular activity against rifampin and isoniazid-resistant Mycobacterium tuberculosis infected in human THP-1 cells assessed as inhibition of intracellular activity at 20 mg/L after 4 days. The settings on record: THP-1, 96 h.
Test [10] concerns Mycobacterium tuberculosis. Description: Antitubercular activity against rifampin, isoniazid and ethambutol-resistant Mycobacterium tuberculosis assessed as inhibition of bacterial growth after 4 weeks by two-fold dilution technique. The settings on record: 672 h.
For test [11], the system named is Mycobacterium tuberculosis. Description: Antitubercular activity against rifampin, isoniazid, amikacin and ofloxacin-resistant Mycobacterium tuberculosis assessed as inhibition of bacterial growth after 4 weeks by two-fold dilution technique. The following applies: 672 h.
Test [12] concerns Mycobacterium tuberculosis. Description: Antitubercular activity against rifampin and isoniazid-resistant Mycobacterium tuberculosis assessed as inhibition of bacterial growth after 4 weeks by two-fold dilution technique. The following applies: 672 h.
The test system of test [13] is Mycobacterium tuberculosis. Description: Antitubercular activity against isoniazid-resistant Mycobacterium tuberculosis infected in human THP-1 cells assessed as inhibition of intracellular activity at 10 mg/L after 4 days. The following applies: THP-1, 96 h.
Test [14] deals with Mycobacterium tuberculosis. Description: Antitubercular activity against rifampin, isoniazid and ethambutol-resistant Mycobacterium tuberculosis infected in human THP-1 cells assessed as inhibition of intracellular activity at 20 mg/L after 4 days. The following applies: THP-1, 96 h.
Test [15] relates to Mycobacterium tuberculosis. Description: Antitubercular activity against rifampin, isoniazid and streptomycin-resistant Mycobacterium tuberculosis assessed as inhibition of bacterial growth after 4 weeks by two-fold dilution technique. The settings on record: 672 h.
Test [16] has as its system Mycobacterium tuberculosis. Description: Antitubercular activity against rifampin, isoniazid, amikacin and ofloxacin-resistant Mycobacterium tuberculosis infected in human THP-1 cells assessed as inhibition of intracellular activity at 20 mg/L after 4 days. The settings on record: THP-1, 96 h.
In test [17] the test system is Mycobacterium tuberculosis. Description: Antitubercular activity against rifampin, isoniazid and streptomycin-resistant Mycobacterium tuberculosis infected in human THP-1 cells assessed as inhibition of intracellular activity at 20 mg/L after 4 days. The settings on record: THP-1, 96 h.
Test [18] concerns Mycobacterium tuberculosis. Description: Antitubercular activity against rifampin, isoniazid, kanamycin and ofloxacin-resistant Mycobacterium tuberculosis assessed as inhibition of bacterial growth after 4 weeks by two-fold dilution technique. The following applies: 672 h.

Results on eight compounds are retold here after ChEMBL document CHEMBL3425445, “Synthesis, crystal structure and biological evaluation of substituted quinazolinone benzoates as novel antituberculosis agents targeting acetohydroxyacid synthase” (Eur J Med Chem, 2015).

A word on the MIC: it is the lowest concentration that inhibits growth of the organism. A word on the inhibition: it is how much of the control response was suppressed.

Molecules are shown by their SMILES. In brackets after ≈: the same amount, converted by molar mass.

`O=C(On1c(-c2cccc(F)c2)nc2ccccc2c1=O)c1cccc(F)c1`: the MIC in [1], in test [10], in test [11], in test [12], in test [15] and in test [18] was 2.5 µg/mL (≈ 6.61 µM) each time. Besides, the inhibition at 10 µg/mL in test [2] came out at 22.6%; in test [3], 26.2%; in test [4], 24.2%; in [6], 22.8%; in [8], 26%; in test [13], 25.5%. In addition, the inhibition at 20 µg/mL in [5] was found to be 52.2%; in test [7], 51.3%; in test [9] it was 47.5%; in test [14], 50.4%; in [16] it was 46.2%; in test [17], 53.4%.
Turning to `O=C(On1c(-c2ccccc2)nc2ccccc2c1=O)c1cccc([N+](=O)[O-])c1`, the MIC in test [1], in [10], in [11], in test [12], in [15] and in test [18] was 5 µg/mL (≈ 12.9 µM) each time.
Take `O=C(On1c(-c2ccccc2)nc2ccccc2c1=O)c1cccc(Cl)c1`: the minimal inhibitory concentration (MIC) in test [1], in test [10], in [11], in test [12], in test [15] and in [18] was 5 µg/mL (≈ 13.3 µM) throughout.
On to `COc1cccc(-c2nc3ccccc3c(=O)n2OC(=O)c2cccc([N+](=O)[O-])c2)c1`, for which the minimal inhibitory concentration (MIC) in [1], in [10], in [11], in test [12], in test [15] and in [18] was 5 µg/mL (≈ 12 µM) each time.
Regarding `COc1cccc(-c2nc3ccccc3c(=O)n2OC(=O)c2cccc(C(F)(F)F)c2)c1`, the MIC in [1], in [10], in test [11], in test [12], in test [15] and in test [18] was 10 µg/mL (≈ 22.7 µM) in each case.
Consider `NNC(=O)c1ccncc1` [ISONIAZID], for which the minimal inhibitory concentration (MIC) in [1], in test [10], in test [11], in test [12], in test [15] and in test [18] was above 8 µg/mL throughout.
With `CO[C@H]1/C=C/O[C@@]2(C)Oc3c(C)c(O)c4c(O)c(c(/C=N/N5CCN(C)CC5)c(O)c4c3C2=O)NC(=O)/C(C)=C\C=C\[C@H](C)[C@H](O)[C@@H](C)[C@@H](O)[C@@H](C)[C@H](OC(C)=O)[C@@H]1C` [RIFAMPIN], the minimum inhibitory concentration (MIC) is 0.4 µg/mL (≈ 0.486 µM) in [1]; above 8 µg/mL in [10]; above 8 µg/mL in test [11]; above 8 µg/mL in [12]; above 8 µg/mL in test [15]; above 8 µg/mL in test [18].
With `COC(=O)c1ccccc1S(=O)(=O)NC(=O)Nc1nc(C)cc(C)n1` [SULFOMETURON METHYL], the MIC in test [1], in test [10], in test [11], in test [12], in [15] and in test [18] was 10 µg/mL (≈ 27.4 µM) each time. Moreover, the inhibition at 10 µg/mL in test [2] is 16.2%; in test [3], 18.5%; in test [4], 17%; in test [6], 15%; in test [8], 18.8%; in [13], 17.8%. Besides, the inhibition at 20 µg/mL in [5] amounted to 36%; in [7] it was 35.6%; in test [9], 34.4%; in [14], 35%; in test [16], 31.8%; in test [17] it was 36.2%.
